Test results from PMC8429728, “TNK1 is a ubiquitin-binding and 14-3-3-regulated kinase that can be targeted to block tumor growth” (Nature Communications, 2021).
Where two headings read alike, the source gives them in different places.

Assays:
Aurora A = target: T1, Aurora A (Homo sapiens, UniProt O14965); test: radiometric […]-ATP kinase assay with recombinant kinase at Km ATP ([…]); format: biochemical
T1 construct: gene AURKA
T1 sequence (O14965 1-403): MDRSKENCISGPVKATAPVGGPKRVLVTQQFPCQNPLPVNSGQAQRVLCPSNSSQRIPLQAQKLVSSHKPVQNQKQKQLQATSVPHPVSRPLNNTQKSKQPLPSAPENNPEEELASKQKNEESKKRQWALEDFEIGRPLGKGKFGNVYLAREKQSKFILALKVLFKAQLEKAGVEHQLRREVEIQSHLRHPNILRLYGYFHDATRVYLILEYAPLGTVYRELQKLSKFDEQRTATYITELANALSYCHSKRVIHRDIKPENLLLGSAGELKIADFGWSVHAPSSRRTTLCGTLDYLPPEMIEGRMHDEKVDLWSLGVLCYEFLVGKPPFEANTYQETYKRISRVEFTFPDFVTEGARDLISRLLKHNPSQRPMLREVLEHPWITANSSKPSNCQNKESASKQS

TNK1 = target: T2, TNK1 (Homo sapiens, UniProt Q13470); test: radiometric […]-ATP kinase assay with recombinant kinase at Km ATP ([…]); supported by NanoBRET target engagement in HEK293 cells (IC50 […]); format: biochemical
T2 sequence (Q13470 1-666): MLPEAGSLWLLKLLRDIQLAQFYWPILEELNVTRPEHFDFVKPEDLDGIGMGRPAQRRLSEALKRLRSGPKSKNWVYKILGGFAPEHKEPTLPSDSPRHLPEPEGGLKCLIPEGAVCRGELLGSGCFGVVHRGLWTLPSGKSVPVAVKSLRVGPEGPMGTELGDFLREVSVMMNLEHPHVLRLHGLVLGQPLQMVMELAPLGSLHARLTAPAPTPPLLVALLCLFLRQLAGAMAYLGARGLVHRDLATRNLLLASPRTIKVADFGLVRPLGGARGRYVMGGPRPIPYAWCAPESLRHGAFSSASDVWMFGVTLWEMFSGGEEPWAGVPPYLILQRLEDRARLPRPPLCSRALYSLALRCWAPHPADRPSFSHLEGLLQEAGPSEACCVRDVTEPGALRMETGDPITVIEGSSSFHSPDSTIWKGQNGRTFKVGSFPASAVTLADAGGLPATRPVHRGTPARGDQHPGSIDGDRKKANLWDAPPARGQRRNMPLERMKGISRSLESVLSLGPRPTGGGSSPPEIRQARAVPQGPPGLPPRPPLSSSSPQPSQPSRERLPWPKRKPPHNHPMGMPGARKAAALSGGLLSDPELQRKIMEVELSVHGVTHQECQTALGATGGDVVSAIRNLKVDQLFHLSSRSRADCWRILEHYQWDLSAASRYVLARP

ABL1 = ABL1 (Homo sapiens, UniProt P00519); test: biochemical; set-up: Reaction Biology 371-kinase panel at Km ATP, per cent enzyme activity relative to DMSO, single dose in duplicate; settings: duplicate measurements, Km ATP
Procedure, shortened: (§1)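 Activity of each kinase, normalised to DMSO-treated controls, served as the read-out. The inhibitor was tested at 300 nM against 371 kinases in vitro. Curves fitted by variable-slope sigmoidal dose-response, constrained to a bottom of 0, gave IC50.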

CAMKK1 = CAMKK1 (Homo sapiens, UniProt Q8N5S9); test: biochemical; set-up: Reaction Biology 371-kinase panel at Km ATP, per cent enzyme activity relative to DMSO, single dose in duplicate; settings: duplicate measurements, Km ATP
Procedure, shortened: as §1

EPHB4 = EPHB4 (Homo sapiens, UniProt P54760); test: biochemical; set-up: Reaction Biology 371-kinase panel at Km ATP, per cent enzyme activity relative to DMSO, single dose in duplicate; settings: duplicate measurements, Km ATP
Procedure, shortened: as §1

HPK1/MAP4K1 = HPK1/MAP4K1 (Homo sapiens, UniProt Q92918); test: biochemical; set-up: Reaction Biology 371-kinase panel at Km ATP, per cent enzyme activity relative to DMSO, single dose in duplicate; settings: duplicate measurements, Km ATP
Procedure, shortened: as §1

MST4 = target: T3, MST4 (Homo sapiens, UniProt Q9P289); test: biochemical; set-up: Reaction Biology 371-kinase panel at Km ATP, per cent enzyme activity relative to DMSO, single dose in duplicate; settings: duplicate measurements, Km ATP
T3 construct: gene STK26
T3 sequence (Q9P289 whole entry): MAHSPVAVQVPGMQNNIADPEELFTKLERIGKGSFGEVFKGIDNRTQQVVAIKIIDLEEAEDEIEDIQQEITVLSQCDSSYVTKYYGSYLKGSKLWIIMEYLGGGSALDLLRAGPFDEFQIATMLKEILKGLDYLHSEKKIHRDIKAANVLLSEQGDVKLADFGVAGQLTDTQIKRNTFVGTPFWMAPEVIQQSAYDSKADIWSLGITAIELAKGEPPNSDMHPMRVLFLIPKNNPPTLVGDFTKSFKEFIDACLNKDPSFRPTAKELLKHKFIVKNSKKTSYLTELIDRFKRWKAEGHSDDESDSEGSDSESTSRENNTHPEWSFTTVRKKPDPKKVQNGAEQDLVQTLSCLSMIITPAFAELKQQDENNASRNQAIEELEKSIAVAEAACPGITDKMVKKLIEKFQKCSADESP
Procedure, shortened: as §1

P38g = target: T4, P38g (Homo sapiens, UniProt P53778); test: biochemical; set-up: Reaction Biology 371-kinase panel at Km ATP, per cent enzyme activity relative to DMSO, single dose in duplicate; settings: duplicate measurements, Km ATP
T4 construct: gene MAPK12
T4 sequence (P53778 whole entry): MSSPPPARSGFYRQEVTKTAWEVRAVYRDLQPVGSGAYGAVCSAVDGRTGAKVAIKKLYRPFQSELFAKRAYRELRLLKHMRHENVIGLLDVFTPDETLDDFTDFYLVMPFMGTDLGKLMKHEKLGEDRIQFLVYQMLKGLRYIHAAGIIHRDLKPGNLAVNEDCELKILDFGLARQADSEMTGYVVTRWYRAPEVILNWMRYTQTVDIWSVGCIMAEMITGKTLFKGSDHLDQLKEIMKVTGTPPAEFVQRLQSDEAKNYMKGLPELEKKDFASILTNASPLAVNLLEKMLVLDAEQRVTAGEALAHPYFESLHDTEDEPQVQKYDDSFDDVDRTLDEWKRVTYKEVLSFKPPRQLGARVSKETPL
Procedure, shortened: as §1

PKN3/PRK3 = PKN3/PRK3 (Homo sapiens, UniProt Q6P5Z2); test: biochemical; set-up: Reaction Biology 371-kinase panel at Km ATP, per cent enzyme activity relative to DMSO, single dose in duplicate; settings: duplicate measurements, Km ATP
Sequence of PKN3/PRK3 (Q6P5Z2 whole entry): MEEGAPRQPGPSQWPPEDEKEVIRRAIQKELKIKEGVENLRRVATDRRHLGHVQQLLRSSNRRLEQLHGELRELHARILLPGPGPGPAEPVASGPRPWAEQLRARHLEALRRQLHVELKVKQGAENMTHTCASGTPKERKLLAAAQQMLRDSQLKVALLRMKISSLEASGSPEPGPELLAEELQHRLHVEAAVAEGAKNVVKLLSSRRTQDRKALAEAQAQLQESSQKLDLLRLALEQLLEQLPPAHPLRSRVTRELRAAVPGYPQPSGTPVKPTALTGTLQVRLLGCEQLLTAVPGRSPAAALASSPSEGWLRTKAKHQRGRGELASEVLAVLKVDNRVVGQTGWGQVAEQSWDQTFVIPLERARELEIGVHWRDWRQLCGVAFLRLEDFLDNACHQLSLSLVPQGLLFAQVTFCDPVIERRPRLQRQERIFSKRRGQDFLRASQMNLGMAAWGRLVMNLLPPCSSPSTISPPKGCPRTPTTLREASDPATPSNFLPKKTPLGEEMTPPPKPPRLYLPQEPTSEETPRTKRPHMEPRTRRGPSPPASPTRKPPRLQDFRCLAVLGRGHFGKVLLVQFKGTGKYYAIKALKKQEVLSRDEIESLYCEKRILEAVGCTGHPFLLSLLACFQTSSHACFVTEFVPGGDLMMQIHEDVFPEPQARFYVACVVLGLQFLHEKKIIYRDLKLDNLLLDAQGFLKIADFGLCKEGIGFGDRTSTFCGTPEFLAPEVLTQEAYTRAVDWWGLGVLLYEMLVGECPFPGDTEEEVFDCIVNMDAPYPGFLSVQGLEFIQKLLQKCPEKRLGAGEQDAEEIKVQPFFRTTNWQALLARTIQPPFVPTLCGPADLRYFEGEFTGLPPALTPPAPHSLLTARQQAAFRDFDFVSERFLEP
Procedure, shortened: as §1

PLK3 = PLK3 (Homo sapiens, UniProt Q9H4B4); test: biochemical; set-up: Reaction Biology 371-kinase panel at Km ATP, per cent enzyme activity relative to DMSO, single dose in duplicate; settings: duplicate measurements, Km ATP
Procedure, shortened: as §1

SRMS = SRMS (Homo sapiens, UniProt Q9H3Y6); test: biochemical; set-up: Reaction Biology 371-kinase panel at Km ATP, per cent enzyme activity relative to DMSO, single dose in duplicate; settings: duplicate measurements, Km ATP
Sequence of SRMS (Q9H3Y6 whole entry): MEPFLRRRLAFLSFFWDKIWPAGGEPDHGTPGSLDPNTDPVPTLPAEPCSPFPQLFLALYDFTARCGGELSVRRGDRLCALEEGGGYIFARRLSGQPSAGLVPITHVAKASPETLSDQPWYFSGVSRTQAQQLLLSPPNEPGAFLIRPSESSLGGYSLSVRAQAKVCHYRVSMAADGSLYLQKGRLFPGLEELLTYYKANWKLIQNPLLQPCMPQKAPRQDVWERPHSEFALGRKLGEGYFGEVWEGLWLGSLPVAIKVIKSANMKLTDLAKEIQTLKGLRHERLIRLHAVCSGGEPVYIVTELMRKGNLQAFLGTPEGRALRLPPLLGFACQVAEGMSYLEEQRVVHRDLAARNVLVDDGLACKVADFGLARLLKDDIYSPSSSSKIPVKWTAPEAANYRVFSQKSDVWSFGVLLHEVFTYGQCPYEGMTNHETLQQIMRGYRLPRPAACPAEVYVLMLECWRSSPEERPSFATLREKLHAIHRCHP
Procedure, shortened: as §1

TTBK1 = TTBK1 (Homo sapiens, UniProt Q5TCY1); test: biochemical; set-up: Reaction Biology 371-kinase panel at Km ATP, per cent enzyme activity relative to DMSO, single dose in duplicate; settings: duplicate measurements, Km ATP
Sequence of TTBK1 (Q5TCY1 whole entry): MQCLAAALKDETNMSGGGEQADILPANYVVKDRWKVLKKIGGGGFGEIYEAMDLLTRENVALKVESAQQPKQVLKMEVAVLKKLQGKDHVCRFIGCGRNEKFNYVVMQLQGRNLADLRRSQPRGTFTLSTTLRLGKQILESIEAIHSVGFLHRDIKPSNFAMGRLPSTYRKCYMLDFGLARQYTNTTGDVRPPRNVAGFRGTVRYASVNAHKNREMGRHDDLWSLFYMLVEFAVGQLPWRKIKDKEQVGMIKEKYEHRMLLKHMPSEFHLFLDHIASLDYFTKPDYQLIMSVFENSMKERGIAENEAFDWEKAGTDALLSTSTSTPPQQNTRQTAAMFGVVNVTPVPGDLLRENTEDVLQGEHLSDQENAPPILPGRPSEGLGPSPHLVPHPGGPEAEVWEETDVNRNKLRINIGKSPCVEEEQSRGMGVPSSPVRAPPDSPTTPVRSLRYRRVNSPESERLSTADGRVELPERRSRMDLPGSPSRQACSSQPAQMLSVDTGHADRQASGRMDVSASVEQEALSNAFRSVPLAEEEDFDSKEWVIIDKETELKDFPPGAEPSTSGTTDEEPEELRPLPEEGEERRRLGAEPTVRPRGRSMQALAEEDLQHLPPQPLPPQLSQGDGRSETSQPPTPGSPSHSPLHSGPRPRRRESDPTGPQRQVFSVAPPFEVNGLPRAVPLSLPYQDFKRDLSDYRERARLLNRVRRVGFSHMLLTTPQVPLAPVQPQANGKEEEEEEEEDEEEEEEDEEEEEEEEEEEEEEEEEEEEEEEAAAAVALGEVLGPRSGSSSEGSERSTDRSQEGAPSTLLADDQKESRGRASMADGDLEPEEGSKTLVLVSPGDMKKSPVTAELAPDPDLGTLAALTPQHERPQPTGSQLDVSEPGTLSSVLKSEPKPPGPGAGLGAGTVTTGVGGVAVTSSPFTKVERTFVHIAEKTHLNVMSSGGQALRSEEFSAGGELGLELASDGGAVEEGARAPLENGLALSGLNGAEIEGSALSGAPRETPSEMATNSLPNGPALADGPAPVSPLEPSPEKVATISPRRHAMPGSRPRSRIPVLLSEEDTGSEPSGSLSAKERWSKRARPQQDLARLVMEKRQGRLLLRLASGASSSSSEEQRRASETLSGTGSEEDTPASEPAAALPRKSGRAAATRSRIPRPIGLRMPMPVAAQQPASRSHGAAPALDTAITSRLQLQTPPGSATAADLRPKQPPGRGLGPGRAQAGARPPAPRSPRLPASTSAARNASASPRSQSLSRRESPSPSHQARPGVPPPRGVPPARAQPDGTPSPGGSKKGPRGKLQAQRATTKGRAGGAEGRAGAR
Procedure, shortened: as §1

ULK1 = ULK1 (Homo sapiens, UniProt O75385); test: biochemical; set-up: Reaction Biology 371-kinase panel at Km ATP, per cent enzyme activity relative to DMSO, single dose in duplicate; settings: duplicate measurements, Km ATP
Sequence of ULK1 (O75385 whole entry): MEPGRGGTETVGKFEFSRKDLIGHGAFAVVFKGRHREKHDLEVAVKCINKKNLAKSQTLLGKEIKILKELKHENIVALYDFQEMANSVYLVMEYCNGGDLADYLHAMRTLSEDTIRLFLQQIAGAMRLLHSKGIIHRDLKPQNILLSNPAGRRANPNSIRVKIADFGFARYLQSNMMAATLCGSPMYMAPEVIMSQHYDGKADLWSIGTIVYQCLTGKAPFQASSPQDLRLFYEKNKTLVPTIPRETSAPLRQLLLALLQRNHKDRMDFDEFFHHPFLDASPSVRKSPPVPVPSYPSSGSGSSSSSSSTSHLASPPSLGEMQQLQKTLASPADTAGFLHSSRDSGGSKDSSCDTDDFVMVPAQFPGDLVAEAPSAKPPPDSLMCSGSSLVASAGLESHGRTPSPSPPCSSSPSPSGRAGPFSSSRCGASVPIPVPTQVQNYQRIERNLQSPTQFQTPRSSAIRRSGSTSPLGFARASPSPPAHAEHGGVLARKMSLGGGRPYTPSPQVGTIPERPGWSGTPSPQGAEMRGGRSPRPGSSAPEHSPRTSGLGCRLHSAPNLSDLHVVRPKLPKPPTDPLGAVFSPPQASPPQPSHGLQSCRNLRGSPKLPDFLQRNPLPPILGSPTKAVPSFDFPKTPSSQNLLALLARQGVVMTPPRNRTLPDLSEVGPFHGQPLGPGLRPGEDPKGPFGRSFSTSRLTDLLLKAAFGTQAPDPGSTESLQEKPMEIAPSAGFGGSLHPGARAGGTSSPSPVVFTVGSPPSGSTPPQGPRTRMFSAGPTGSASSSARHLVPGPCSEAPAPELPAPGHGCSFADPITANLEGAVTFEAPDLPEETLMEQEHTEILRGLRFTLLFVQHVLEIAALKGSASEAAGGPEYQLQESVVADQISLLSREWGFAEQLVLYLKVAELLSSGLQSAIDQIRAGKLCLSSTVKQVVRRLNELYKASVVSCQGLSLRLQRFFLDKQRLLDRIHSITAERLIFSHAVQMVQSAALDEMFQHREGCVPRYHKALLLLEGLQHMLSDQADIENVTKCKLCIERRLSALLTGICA
Procedure, shortened: as §1

ULK3 = ULK3 (Homo sapiens, UniProt Q6PHR2); test: biochemical; set-up: Reaction Biology 371-kinase panel at Km ATP, per cent enzyme activity relative to DMSO, single dose in duplicate; settings: duplicate measurements, Km ATP
Sequence of ULK3 (Q6PHR2 whole entry): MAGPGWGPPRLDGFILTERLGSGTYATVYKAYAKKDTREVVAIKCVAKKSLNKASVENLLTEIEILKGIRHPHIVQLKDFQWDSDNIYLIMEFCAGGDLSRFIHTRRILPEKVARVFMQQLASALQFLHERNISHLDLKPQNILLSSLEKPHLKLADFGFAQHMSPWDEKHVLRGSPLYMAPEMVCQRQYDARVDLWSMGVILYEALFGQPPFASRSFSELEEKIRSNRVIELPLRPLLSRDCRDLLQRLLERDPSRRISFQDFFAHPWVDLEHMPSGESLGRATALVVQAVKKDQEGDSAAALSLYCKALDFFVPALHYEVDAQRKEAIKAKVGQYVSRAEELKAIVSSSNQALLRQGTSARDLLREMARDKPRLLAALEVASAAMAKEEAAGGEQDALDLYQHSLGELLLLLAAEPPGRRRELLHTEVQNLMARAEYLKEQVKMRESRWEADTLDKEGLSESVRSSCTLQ
Procedure, shortened: as §1

[1] = read-out: % Enzyme Activity (relative to DMSO controls) / TP-0005801 (0.3µM) / Data 1
[2] = read-out: % Enzyme Activity (relative to DMSO controls) / TP-0005801 (0.3µM) / Data 2

## COc1cc(N2CCN(C)CC2)c(C)cc1Nc1ncc(Br)c(Nc2cccnc2N(C)C)n1 [TP-5801]
Aurora A
  IC50: 5380 nM
TNK1
  IC50: 1.4 nM
ABL1; [1]
  remaining activity at 0.3 µM: 109%
ABL1; [2]
  remaining activity at 0.3 µM: 107%
CAMKK1; [1]
  remaining activity at 0.3 µM: 77.1%
CAMKK1; [2]
  remaining activity at 0.3 µM: 74%
EPHB4; [1]
  remaining activity at 0.3 µM: 103%
EPHB4; [2]
  remaining activity at 0.3 µM: 102%
HPK1/MAP4K1; [1]
  remaining activity at 0.3 µM: 25.8%
HPK1/MAP4K1; [2]
  remaining activity at 0.3 µM: 25.6%
MST4; [1]
  remaining activity at 0.3 µM: 101%
MST4; [2]
  remaining activity at 0.3 µM: 92.7%
P38g; [1]
  remaining activity at 0.3 µM: 104%
P38g; [2]
  remaining activity at 0.3 µM: 102%
PKN3/PRK3; [1]
  remaining activity at 0.3 µM: 95.4%
PKN3/PRK3; [2]
  remaining activity at 0.3 µM: 93.7%
PLK3; [1]
  remaining activity at 0.3 µM: 109%
PLK3; [2]
  remaining activity at 0.3 µM: 102%
SRMS; [1]
  remaining activity at 0.3 µM: 89.9%
SRMS; [2]
  remaining activity at 0.3 µM: 89.5%
TTBK1; [1]
  remaining activity at 0.3 µM: 97.2%
TTBK1; [2]
  remaining activity at 0.3 µM: 94%
ULK1; [1]
  remaining activity at 0.3 µM: 49.9%
ULK1; [2]
  remaining activity at 0.3 µM: 49.7%
ULK3; [1]
  remaining activity at 0.3 µM: 43.8%
ULK3; [2]
  remaining activity at 0.3 µM: 40.1%
